Measured values reported in paper PMC4259467, “Molecular Cloning, Characterization and Positively Selected Sites of the Glutathione S-Transferase Family from Locusta migratoria” (PLoS ONE, 2014).

How the values were obtained:
Test in all cases: spectrophotometric GST assay, steady state
Assay type in all cases: biochemical
Conditions in all cases: co-substrate GSH; pH and temperature not given; read-out: K m ^CDNB
LmGSTD2 = molecular target: T1, LmGSTD2 (Locusta migratoria, UniProt V9Q3Y3)
T1 construct: gene GSTd2; full-length ORF in pET28a, E. coli BL21(DE3), His-tag Ni-NTA purified
T1 sequence (V9Q3Y3 1-214): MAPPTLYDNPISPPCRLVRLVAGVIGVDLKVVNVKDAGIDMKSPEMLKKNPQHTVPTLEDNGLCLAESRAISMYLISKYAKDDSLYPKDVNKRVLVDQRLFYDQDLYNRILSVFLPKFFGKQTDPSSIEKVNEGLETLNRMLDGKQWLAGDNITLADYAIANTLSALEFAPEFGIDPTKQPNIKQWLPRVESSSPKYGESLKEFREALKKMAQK
Text: spectrophotometric GST assay, steady state on LmGSTD2

LmGSTD5 = molecular target: T2, LmGSTD5 (Locusta migratoria, UniProt V9Q4A2)
T2 construct: gene GSTd5; full-length ORF in pET28a, E. coli BL21(DE3), His-tag Ni-NTA purified
T2 sequence (V9Q4A2 1-224): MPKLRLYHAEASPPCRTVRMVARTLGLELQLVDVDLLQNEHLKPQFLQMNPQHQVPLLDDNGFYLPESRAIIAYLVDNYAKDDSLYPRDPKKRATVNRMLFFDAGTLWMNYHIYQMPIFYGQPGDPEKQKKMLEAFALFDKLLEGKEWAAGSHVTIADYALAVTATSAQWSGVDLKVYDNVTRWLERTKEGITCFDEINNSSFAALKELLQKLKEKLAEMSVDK
Text: spectrophotometric GST assay, steady state on LmGSTD5

LmGSTS10 = molecular target: T3, LmGSTS10 (Locusta migratoria, UniProt V9Q3X5)
T3 construct: gene GSTs10; full-length ORF in pET28a, E. coli BL21(DE3), His-tag Ni-NTA purified
T3 sequence (V9Q3X5 1-204): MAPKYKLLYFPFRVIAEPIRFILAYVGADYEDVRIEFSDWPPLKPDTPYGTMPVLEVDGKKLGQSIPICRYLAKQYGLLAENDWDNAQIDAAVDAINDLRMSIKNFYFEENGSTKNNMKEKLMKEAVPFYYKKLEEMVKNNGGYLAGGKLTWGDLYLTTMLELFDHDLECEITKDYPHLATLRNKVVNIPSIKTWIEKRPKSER
Text: spectrophotometric GST assay, steady state on LmGSTS10

LmGSTD7 = molecular target: T4, LmGSTD7 (Locusta migratoria, UniProt V9Q328)
T4 construct: gene GSTd7; full-length ORF in pET28a, E. coli BL21(DE3), His-tag Ni-NTA purified
T4 sequence (V9Q328 1-233): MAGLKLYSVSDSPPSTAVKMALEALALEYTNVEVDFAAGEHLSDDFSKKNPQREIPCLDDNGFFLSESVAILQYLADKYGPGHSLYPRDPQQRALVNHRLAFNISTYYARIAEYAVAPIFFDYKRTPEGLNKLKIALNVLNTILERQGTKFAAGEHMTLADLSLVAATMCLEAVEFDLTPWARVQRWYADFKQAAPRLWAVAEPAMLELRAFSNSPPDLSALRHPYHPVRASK
Text: spectrophotometric GST assay, steady state on LmGSTD7

LmGSTE5 = molecular target: T5, LmGSTE5 (Locusta migratoria, UniProt V9Q3X9)
T5 construct: gene GSTe5; full-length ORF in pET28a, E. coli BL21(DE3), His-tag Ni-NTA purified
T5 sequence (V9Q3X9 1-221): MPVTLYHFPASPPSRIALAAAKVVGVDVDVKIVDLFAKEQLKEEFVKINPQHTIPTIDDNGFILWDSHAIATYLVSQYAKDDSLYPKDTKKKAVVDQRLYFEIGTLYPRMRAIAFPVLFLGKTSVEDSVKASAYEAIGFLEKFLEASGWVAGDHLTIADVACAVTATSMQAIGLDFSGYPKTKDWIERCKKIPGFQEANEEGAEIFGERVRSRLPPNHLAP
Text: spectrophotometric GST assay, steady state on LmGSTE5

LmGSTE4 = molecular target: T6, LmGSTE4 (Locusta migratoria, UniProt V9Q318)
T6 construct: gene GSTe4; full-length ORF in pET28a, E. coli BL21(DE3), His-tag Ni-NTA purified
T6 sequence (V9Q318 1-221): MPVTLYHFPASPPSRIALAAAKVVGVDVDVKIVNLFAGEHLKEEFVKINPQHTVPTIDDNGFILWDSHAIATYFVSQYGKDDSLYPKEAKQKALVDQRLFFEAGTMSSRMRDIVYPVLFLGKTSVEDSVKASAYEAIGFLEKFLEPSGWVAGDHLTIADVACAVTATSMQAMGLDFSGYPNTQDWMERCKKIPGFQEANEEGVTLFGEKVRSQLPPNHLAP
Text: spectrophotometric GST assay, steady state on LmGSTE4

LmGSTO1 = molecular target: T7, LmGSTO1 (Locusta migratoria, UniProt V9Q3Y6)
T7 construct: gene GSTo1; full-length ORF in pET28a, E. coli BL21(DE3), His-tag Ni-NTA purified
T7 sequence (V9Q3Y6 1-242): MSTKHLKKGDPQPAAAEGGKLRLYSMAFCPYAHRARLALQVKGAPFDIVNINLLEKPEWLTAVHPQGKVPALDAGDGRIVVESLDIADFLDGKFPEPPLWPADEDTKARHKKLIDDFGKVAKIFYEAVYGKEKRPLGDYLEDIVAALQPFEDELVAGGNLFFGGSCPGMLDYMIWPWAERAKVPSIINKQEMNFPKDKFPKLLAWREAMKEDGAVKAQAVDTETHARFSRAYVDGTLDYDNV
Text: spectrophotometric GST assay, steady state on LmGSTO1

LmGSTO3 = molecular target: T8, LmGSTO3 (Locusta migratoria, UniProt V9Q2Q7)
T8 construct: gene GSTo3; full-length ORF in pET28a, E. coli BL21(DE3), His-tag Ni-NTA purified
T8 sequence (V9Q2Q7 1-241): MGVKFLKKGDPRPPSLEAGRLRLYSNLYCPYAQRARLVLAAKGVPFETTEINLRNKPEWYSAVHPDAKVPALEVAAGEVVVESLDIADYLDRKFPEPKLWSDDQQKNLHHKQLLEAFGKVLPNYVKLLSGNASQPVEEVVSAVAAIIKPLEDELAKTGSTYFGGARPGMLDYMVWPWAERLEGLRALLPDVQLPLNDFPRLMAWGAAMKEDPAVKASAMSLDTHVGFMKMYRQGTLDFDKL
Text: spectrophotometric GST assay, steady state on LmGSTO3

## O=[N+]([O-])c1ccc(Cl)c([N+](=O)[O-])c1 [CDNB]
LmGSTD2
  Km: 923 ± 49 µM
LmGSTD5
  Km: 21 ± 1 µM
LmGSTS10
  Km: 311 ± 18 µM
LmGSTD7
  Km: 492 ± 39 µM
LmGSTE5
  Km: 26 ± 2 µM
LmGSTE4
  Km: 102 ± 8 µM
LmGSTO1
  Km: 228 ± 45 µM
LmGSTO3
  Km: 216 ± 4 µM
